Legend:
[1] = Cell viability assay (MTT) on MCF-10A normal cell line; assay type: cell-based; conditions: human, MCF-10A mammary gland epithelial normal cells, MCF-10A cells, 50 μM of each compound, four days of incubation
Protocol: The human mammary gland epithelial (MCF-10A) normal cell line was used to examine the viability effects of new derivatives 5a–l using the MTT test.[33,34] Refer to Appendix A for more details.
The human mammary gland epithelium (MCF-10A) normal cell line was employed to evaluate the viability effects of novel derivatives 5a–l. The cell viability of 5a–l was assessed via the MTT assay following four days of incubation with 50 μM of each compound on MCF-10A cells.[33,34] […]
4.2. Biological evaluation
4.2.1 Cell Viability assay (MTT assay)
MTT assay was performed to investigate the effect of the synthesized compounds on mammary epithelial cells (MCF-10A). The cells were propagated in medium consisting of Ham's F-12 medium/ Dulbecco's modified Eagle's medium (DMEM) (1:1) supplemented with 10% foetal calf serum, 2 mM glutamine, insulin (10 μg/mL), hydrocortisone (500 ng/mL) and epidermal growth factor (20 ng/mL). Trypsin ethylenediamine tetra acetic acid (EDTA) was used to passage the cells after every 2-3 days. 96-well flat-bottomed cell culture plates were used to seed the cells at a density of 10^4 cells mL-1. The medium was aspirated from all the wells of culture plates after 24 h followed by the addition of synthesized compounds (in 200 μL medium to yield a final concentration of 0.1% (v/v) dimethyl sulfoxide) into individual wells of the plates. Four wells were designated to a single compound. The plates were allowed to incubate at 37°C for 96 h. Afterwards, the medium was aspirated and 3-[4,5-dimethylthiazol-2-yl]-2,5-diphenyltetrazolium bromide (MTT) (0.4 mg/mL) in medium was added to each well and subsequently incubated for 3 h. The medium was aspirated and 150 μL dimethyl sulfoxide (DMSO) was added to each well. The plates were vortexed followed by the measurement of absorbance at 540 nm on a microplate reader. The results were presented as inhibition (%) of proliferation in contrast to controls comprising 0.1% DMSO. […]

lung cancer (A-549) = assay: Antiproliferative assay, A-549; assay type: cell-based; conditions: Homo sapiens, A549; A-549 lung cancer cell line; read-out: Antiproliferative activity IC50 ± SEM (nM) A-549
Protocol: (§1) 4.2.2. Assay for antiproliferative effect
(§2) To explore the antiproliferative potential of compounds propidium iodide fluorescence assay was performed using different cell lines such as Panc-1 (pancreas cancer cell line), MCF-7 (breast cancer cell line), HT-29 (colon cancer cell line) and A-549 (epithelial cancer cell line), respectively. To calculate the total nuclear DNA, a fluorescent dye (propidium iodide, PI) is used which can attach to the DNA, thus offering a quick and precise technique. PI cannot pass through the cell membrane and its signal intensity can be considered as directly proportional to quantity of cellular DNA. Cells whose cell membranes are damaged or have changed permeability are counted as dead ones. The assay was performed by seeding the cells of different cell lines at a density of 3000-7500 cells/well (in 200μl medium) in culture plates followed by incubation for 24h at 37 °C in humidified 5%CO2/95% air atmospheric conditions. The medium was removed; the compounds were added to the plates at 10 μM concentrations (in 0.1% DMSO) in triplicates, followed by incubation for 48h. DMSO (0.1%) was used as control. After incubation, medium was removed followed by the addition of PI (25 μl, 50μg/mL in water/medium) to each well of the plates. At -80 °C, the plates were allowed to freeze for 24 h, followed by thawing at 25 °C. A fluorometer (Polar-Star BMG Tech) was used to record the readings at excitation and emission wavelengths of 530 and 620 nm for each well. The percentage cytotoxicity of compounds was calculated using the following formula:
(§3) Where ATC= Absorbance of treated cells and AC= Absorbance of control. Erlotinib was used as positive control in the assay. […]
(1 picture or pasted object on this page, not shown here)

breast cancer (MCF-7) = assay: Antiproliferative assay, MCF-7; assay type: cell-based, human; conditions: for IC50: Homo sapiens, MCF7, MCF-7 breast cancer cell line, read-out: Antiproliferative activity IC50 ± SEM (nM) MCF-7
Protocol: as §1, §2, §3

[2] = test system: pancreatic cancer (Panc-1); assay: Antiproliferative assay, Panc-1; assay type: cell-based; conditions: Homo sapiens; Panc-1 pancreatic cancer cell line; read-out: Antiproliferative activity IC50 ± SEM (nM) Panc-1
Protocol: as §1, §2, §3

colon cancer (HT-29) = assay: Antiproliferative assay, HT-29; assay type: cell-based; conditions: Homo sapiens; HT-29 colon cancer cell line; read-out: Antiproliferative activity IC50 ± SEM (nM) HT-29
Protocol: as §1, §2, §3

[3] = test system: four human cancer cell lines (A-549, MCF-7, Panc-1, HT-29); assay: Antiproliferative assay, average over four cancer cell lines (GI50); assay type: cell-based; conditions: for GI50: Homo sapiens, GI50 = mean IC50 against the four cancer cell lines; for Potency reduction fold compared to 5h (GI50): ratio of GI50 versus 5h; for Times less efficient than 5a (GI50): ratio of GI50 versus 5a
Protocol: as §1
To explore the antiproliferative potential of compounds propidium iodide fluorescence assay was performed using different cell lines such as Panc-1 (pancreas cancer cell line), MCF-7 (breast cancer […]
calculate the total nuclear DNA, a fluorescent dye (propidium iodide, PI) is used which can attach to the DNA, thus offering a quick and precise technique. PI cannot pass through the cell membrane and its signal intensity can be considered as directly proportional to quantity of cellular DNA. Cells whose cell membranes are damaged or have changed permeability are counted as dead ones. The assay was performed by seeding the cells of different cell lines at a density of 3000-7500 cells/well (in 200μl […]
atmospheric conditions. The medium was removed; the compounds were added to the plates at 10 μM concentrations (in 0.1% DMSO) in triplicates, followed by incubation for 48h. DMSO (0.1%) was used as control. After incubation, medium was removed followed by the addition of PI (25 μl, 50μg/mL in water/medium) to each well of the plates. At -80 °C, the plates were allowed to freeze for 24 h, followed by thawing at 25 °C. A fluorometer (Polar-Star BMG Tech) was used to record the readings at excitation and emission wavelengths of 530 and 620 nm for each well. The percentage cytotoxicity of compounds was calculated using the following formula:
Where ATC= Absorbance of treated cells and AC= Absorbance of control. […]
positive control in the assay. […]

HER-2 = molecular target: T1, HER-2 (Homo sapiens, UniProt P04626); assay: HER-2 inhibitory assay (ADP-Glo kinase assay); assay type: biochemical; conditions: read-out: HER-2 inhibition IC50 ± SEM
T1 construct: purchased Abcam ab60866
Protocol: The results are presented as IC50 values. Lapatinib served as the reference medication. Appendix A describes more experimental details.
Lapatinib functioned as the reference drug. […]
4.2.5. HER-2 inhibitory assay
The ADP-Glo™ Kinase Assay was used for kinase activity detection, related kinases information:
HER-2 (ab60866, Abcam), with a concentration of 100 ng/mL. Target compounds were dissolved in DMSO to obtain drug solutions with different concentrations, and the compound concentrations in the final reaction system (100 μL) were 1 nM, 20 nM, 40 nM, 80 nM, and 100 nM, respectively. 10μL of the solution containing compounds was transferred to a 96-well plate, then added 40 μL of 1 × kinase buffer (50 mM HEPES, pH 7.5) to each well, and mixed the mixture in the 96-well plate on a shaker for 10 min. Next, added 25 μL of ADP-Glo™ reagent to the above wells, mixed and incubated for another 40 min. Distributed 10 μL kinase detection reagent to the reaction and incubated for 30 min. Finally, the full-wavelength microplate reader was used to record the OD value.
4.3. Statistical analysis
Computerized Prism 5 program was used to statistically analyzed data using one-way ANOVA test followed by Tukey’s as post ANOVA for multiple comparison at P ≤.05. Data were presented as […]

EGFR = EGFR (Homo sapiens, UniProt P00533); assay: EGFR-TK inhibitory assay
Protocol: Baculoviral expression vectors including pBlueBacHis2B and pFASTBacHTc were used separately
upstream to the EGFR sequence comprised a sequence that encoded (His)6. Sf-9 cells were infected for 72h for protein expression. The pellets of Sf-9 cells were solubilized in a buffer containing sodium vanadate (100 μM), aprotinin (10 μg/mL), triton (1%), HEPES buffer(50mM), ammonium molybdate (10 μM), benzamidine HCl (16 μg/mL), NaCl (10 mM),leupeptin (10 μg/mL) and pepstatin (10 μg/mL) at 0°C for 20 min at pH 7.4, followed by centrifugation for 20 min. To eliminate the nonspecifically bound material, a Ni-NTA super flow packed column was used to pass through and wash the crude extract supernatant first with 10mM and then with 100 mM imidazole. Histidine-linked proteins were first eluted with 250 and then with 500 mM imidazole subsequent to dialysis against NaCl (50 mM), HEPES (20 mM), glycerol (10%) and 1 μg/mL each of aprotinin, leupeptin and pepstatin for 120 min. The purification was performed either at 4 °C or on ice. To record autophosphorylation level, EGFR kinase assay was carried out on the basis of DELFIA/Time-Resolved Fluorometry. The compounds were first dissolved in DMSO absolute, subsequent to dilution to appropriate concentration using HEPES (25 mM) at pH 7.4. Each compound (10 μL) was incubated with recombinant enzyme (10 μL, 5 ng for EGFR, 1:80 dilution in 100 mM HEPES) for 10 min at 25 °C, subsequent to the addition of 5X buffer (10 μL, containing 2 mM MnCl2, 100 μM Na3VO4, 20 mM HEPES and 1 mM DTT) and ATP-MgCl2 (20 μL, containing 0.1 mM ATP and 50 mM MgCl2) and incubation for 1h. The negative and positive controls were included in each plate by the incubation of enzyme either with or without ATP-MgCl2. The liquid was removed after incubation and the plates were washed thrice using a wash buffer. The Europium-tagged antiphosphotyrosine antibody (75 μL, 400 ng) was added to each well followed by incubation of 1h
and then washing of the plates using buffer. The enhancement solution was added to each well and
autophosphorylation percentage inhibition by compounds was calculated using the following
calculated. The majority of signals detected by antiphosphotyrosine antibody were from EGFR because the enzyme preparation contained low impurities.

BRAF^V600E = BRAF^V600E (Mus musculus, UniProt P28028, V585E); assay: BRAF^V600E inhibitory assay
BRAF^V600E, sequence (P28028 whole entry V585E): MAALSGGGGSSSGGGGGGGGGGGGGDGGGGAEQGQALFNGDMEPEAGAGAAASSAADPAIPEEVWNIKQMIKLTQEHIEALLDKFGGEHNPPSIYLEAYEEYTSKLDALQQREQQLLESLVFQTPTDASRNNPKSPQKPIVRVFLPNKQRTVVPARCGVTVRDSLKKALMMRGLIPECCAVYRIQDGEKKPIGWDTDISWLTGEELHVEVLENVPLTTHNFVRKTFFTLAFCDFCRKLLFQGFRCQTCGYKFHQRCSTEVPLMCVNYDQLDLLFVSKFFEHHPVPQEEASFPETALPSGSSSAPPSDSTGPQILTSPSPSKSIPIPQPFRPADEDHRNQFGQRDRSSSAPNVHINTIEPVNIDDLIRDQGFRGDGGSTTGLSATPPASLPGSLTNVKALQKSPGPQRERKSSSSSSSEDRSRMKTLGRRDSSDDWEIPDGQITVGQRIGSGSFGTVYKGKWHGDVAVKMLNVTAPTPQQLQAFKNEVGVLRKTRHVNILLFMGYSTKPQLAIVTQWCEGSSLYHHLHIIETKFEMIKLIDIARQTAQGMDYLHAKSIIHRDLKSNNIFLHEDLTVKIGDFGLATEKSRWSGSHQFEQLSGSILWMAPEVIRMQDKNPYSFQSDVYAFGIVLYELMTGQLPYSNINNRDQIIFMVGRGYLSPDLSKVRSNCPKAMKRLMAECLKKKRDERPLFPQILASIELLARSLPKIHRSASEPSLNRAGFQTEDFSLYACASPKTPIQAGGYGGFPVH

EGFR, sequence (P00533 669-1210): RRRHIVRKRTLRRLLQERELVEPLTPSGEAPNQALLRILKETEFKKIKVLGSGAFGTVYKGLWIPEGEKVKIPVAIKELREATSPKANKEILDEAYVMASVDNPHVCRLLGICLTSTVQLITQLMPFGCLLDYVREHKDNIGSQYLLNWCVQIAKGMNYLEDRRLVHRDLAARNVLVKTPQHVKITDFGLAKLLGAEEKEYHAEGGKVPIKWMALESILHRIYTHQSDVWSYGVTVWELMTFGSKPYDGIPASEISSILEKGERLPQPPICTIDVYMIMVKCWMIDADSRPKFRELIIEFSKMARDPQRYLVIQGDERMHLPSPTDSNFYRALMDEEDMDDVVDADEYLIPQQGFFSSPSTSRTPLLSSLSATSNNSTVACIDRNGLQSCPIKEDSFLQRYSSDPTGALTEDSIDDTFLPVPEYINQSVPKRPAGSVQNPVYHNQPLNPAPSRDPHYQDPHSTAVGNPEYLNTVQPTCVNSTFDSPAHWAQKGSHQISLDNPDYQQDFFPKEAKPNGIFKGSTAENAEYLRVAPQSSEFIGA
T1 sequence (P04626 23-1255): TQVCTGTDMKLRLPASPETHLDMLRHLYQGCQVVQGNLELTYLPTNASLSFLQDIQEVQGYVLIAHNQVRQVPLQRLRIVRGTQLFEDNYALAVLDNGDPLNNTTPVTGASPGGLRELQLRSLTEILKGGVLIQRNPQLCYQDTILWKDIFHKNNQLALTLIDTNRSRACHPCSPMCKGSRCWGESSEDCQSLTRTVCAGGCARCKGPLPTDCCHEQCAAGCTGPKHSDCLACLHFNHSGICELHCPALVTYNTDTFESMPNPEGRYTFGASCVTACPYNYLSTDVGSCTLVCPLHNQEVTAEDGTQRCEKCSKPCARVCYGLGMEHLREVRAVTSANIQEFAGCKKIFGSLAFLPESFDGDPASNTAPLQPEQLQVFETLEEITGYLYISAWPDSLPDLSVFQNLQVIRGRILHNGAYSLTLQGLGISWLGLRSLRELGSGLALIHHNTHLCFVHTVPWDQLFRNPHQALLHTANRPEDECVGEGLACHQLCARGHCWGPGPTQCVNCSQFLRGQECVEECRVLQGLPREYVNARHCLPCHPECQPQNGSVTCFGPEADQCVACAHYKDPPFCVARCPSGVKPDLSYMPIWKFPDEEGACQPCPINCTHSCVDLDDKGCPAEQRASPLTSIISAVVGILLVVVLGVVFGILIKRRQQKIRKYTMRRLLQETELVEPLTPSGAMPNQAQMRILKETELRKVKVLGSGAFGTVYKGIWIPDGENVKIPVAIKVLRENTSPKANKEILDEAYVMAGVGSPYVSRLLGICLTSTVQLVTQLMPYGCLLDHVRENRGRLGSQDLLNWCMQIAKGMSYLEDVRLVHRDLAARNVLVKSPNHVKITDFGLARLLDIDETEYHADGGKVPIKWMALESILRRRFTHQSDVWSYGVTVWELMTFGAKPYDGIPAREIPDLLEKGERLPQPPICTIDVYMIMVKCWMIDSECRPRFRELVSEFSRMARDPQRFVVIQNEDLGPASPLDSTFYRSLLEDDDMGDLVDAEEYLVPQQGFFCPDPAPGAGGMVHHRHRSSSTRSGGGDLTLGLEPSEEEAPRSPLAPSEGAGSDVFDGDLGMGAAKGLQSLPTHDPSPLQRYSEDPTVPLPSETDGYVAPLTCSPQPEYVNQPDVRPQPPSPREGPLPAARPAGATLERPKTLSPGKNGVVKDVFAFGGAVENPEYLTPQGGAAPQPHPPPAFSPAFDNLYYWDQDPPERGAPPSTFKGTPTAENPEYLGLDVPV

Compound	IC50 (lung cancer (A-549))	IC50 (breast cancer (MCF-7))	IC50 [2]	IC50 (colon cancer (HT-29))	GI50 [3]	IC50 (HER-2)	IC50 (EGFR)	IC50 (BRAF^V600E)	Potency reduction fold compared to 5h (GI50) [3]	Times less efficient than 5a (GI50) [3]	Fold less potent than 5e, EGFR (EGFR; ratio of EGFR IC50 versus 5e)	Times more effective than erlotinib (GI50) ([3]; ratio of GI50 versus erlotinib, four cancer cell lines)	Fold more potency than erlotinib, EGFR (EGFR; ratio of EGFR IC50 versus erlotinib)	viability at 4 days, 50 µM [1]	Potency fold greater than erlotinib, MCF-7 (breast cancer (MCF-7); ratio of IC50 versus erlotinib, MCF-7)
COc1ccc2[nH]c(=O)c3c(c2c1)OC(N)=C(C#N)C3c1ccc(Cl)cc1 (stereo not drawn) [Compound 5l, 2-Amino-9-methoxyl-4-(4-chlorophenyl)-5-oxo-5,6-dihydro-4H-pyrano[3,2-c]quinoline-3-carbonitrile]	60 ± 5 nM	56 ± 5 nM	62 ± 5 nM	63 ± 5 nM	61 nM	–	–	–	2.3 fold	–	–	–	–	92%	–
Cc1ccc2[nH]c(=O)c3c(c2c1)OC(N)=C(C#N)C3c1ccccc1 (stereo not drawn) [Compound 5b, 2-Amino-9-methyl-5-oxo-4-phenyl-5,6-dihydro-4H-pyrano[3,2-c]quinoline-3-carbonitrile]	48 ± 4 nM	44 ± 4 nM	48 ± 4 nM	50 ± 5 nM	48 nM	–	–	–	–	1.5 fold	–	–	–	90%	–
COc1ccc(C2C(C#N)=C(N)Oc3c2c(=O)[nH]c2ccccc32)cc1 (stereo not drawn) [Compound 5f, 2-Amino-4-(4-methoxylphenyl)-5-oxo-5,6-dihydro-4H-pyrano[3,2-c]quinoline-3-carbonitrile]	54 ± 4 nM	50 ± 4 nM	56 ± 5 nM	56 ± 5 nM	54 nM	–	–	–	–	–	–	–	–	92%	–
COc1ccc(C2C(C#N)=C(N)Oc3c2c(=O)[nH]c2ccc(C)cc32)cc1 (stereo not drawn) [Compound 5g, 2-Amino-4-(4-methoxylphenyl)-9-methyl-5-oxo-5,6-dihydro-4H-pyrano[3,2-c]quinoline-3-carbonitrile]	71 ± 6 nM	67 ± 6 nM	74 ± 6 nM	74 ± 6 nM	72 nM	–	–	–	2.6 fold	–	–	–	–	93%	–
N#CC1=C(N)Oc2c(c(=O)[nH]c3ccccc23)C1c1ccc(Cl)cc1 (stereo not drawn) [Compound 5j, 2-Amino-4-(4-chlorophenyl)-5-oxo-5,6-dihydro-4H-pyrano[3,2-c]quinoline-3-carbonitrile]	43 ± 4 nM	38 ± 3 nM	44 ± 4 nM	46 ± 4 nM	43 nM	–	–	–	–	–	–	–	–	91%	–
COc1ccc2[nH]c(=O)c3c(c2c1)OC(N)=C(C#N)C3c1ccccc1 (stereo not drawn) [Compound 5c, 2-Amino-9-methoxy-5-oxo-4-phenyl-5,6-dihydro-4H-pyrano[3,2-c]quinoline-3-carbonitrile]	66 ± 6 nM	59 ± 5 nM	68 ± 6 nM	70 ± 6 nM	66 nM	–	–	–	2.5 fold	2.1 fold	–	–	–	91%	–
Cc1ccc2[nH]c(=O)c3c(c2c1)OC(N)=C(C#N)C3c1ccc(Cl)cc1 (stereo not drawn) [Compound 5k, 2-Amino-9-methyl-4-(4-chlorophenyl)-5-oxo-5,6-dihydro-4H-pyrano[3,2-c]quinoline-3-carbonitrile]	39 ± 3 nM	34 ± 3 nM	42 ± 3 nM	42 ± 3 nM	39 nM	–	–	–	–	–	–	–	–	93%	–

The next molecules have a lower IC50 (lung cancer (A-549)) than those just listed; values first:

IC50 (lung cancer (A-549))	IC50 (breast cancer (MCF-7))	IC50 [2]	IC50 (colon cancer (HT-29))	GI50 [3]	IC50 (HER-2)	IC50 (EGFR)	IC50 (BRAF^V600E)	Potency reduction fold compared to 5h (GI50) [3]	Times less efficient than 5a (GI50) [3]	Fold less potent than 5e, EGFR (EGFR; ratio of EGFR IC50 versus 5e)	Times more effective than erlotinib (GI50) ([3]; ratio of GI50 versus erlotinib, four cancer cell lines)	Fold more potency than erlotinib, EGFR (EGFR; ratio of EGFR IC50 versus erlotinib)	Compound	viability at 4 days, 50 µM [1]	Potency fold greater than erlotinib, MCF-7 (breast cancer (MCF-7); ratio of IC50 versus erlotinib, MCF-7)
35 ± 3 nM	31 ± 2 nM	36 ± 3 nM	37 ± 3 nM	35 nM	39 ± 2 nM	87 ± 5 nM	83 ± 5 nM	–	–	–	–	–	Cc1ccc2c3c(c(=O)[nH]c2c1)C(c1ccccc1)C(C#N)=C(N)O3 (stereo not drawn) [Compound 5d, 2-Amino-8-methyl-5-oxo-4-phenyl-5,6-dihydro-4H-pyrano[3,2-c]quinoline-3-carbonitrile]	93%	–
32 ± 2 nM	27 ± 2 nM	32 ± 2 nM	32 ± 2 nM	31 nM	36 ± 2 nM	84 ± 5 nM	79 ± 5 nM	–	–	1.2 fold	–	–	N#CC1=C(N)Oc2c(c(=O)[nH]c3ccccc23)C1c1ccccc1 (stereo not drawn) [Compound 5a, 2-Amino-5-oxo-4-phenyl-5,6-dihydro-4H-pyrano[3,2-c]quinoline-3-carbonitrile]	92%	–
26 ± 2 nM	24 ± 2 nM	28 ± 2 nM	27 ± 2 nM	26 nM	21 ± 1 nM	71 ± 4 nM	62 ± 3 nM	–	–	–	1.3 fold	1.2 fold	Cn1c(=O)c2c(c3ccccc31)OC(N)=C(C#N)C2c1ccccc1 (stereo not drawn) [Compound 5e, 2-Amino-6-methyl-5-oxo-4-phenyl-5,6-dihydro-4H-pyrano[3,2-c]quinoline-3-carbonitrile]	90%	1.7 fold

Source: article PMC12517401, “Design, synthesis, and antiproliferative activity of new 2-amino-pyrano[3,2-c]quinoline-3-carbonitriles as potential EGFR, BRAF^V600E, and HER-2 inhibitors” (RSC Advances, 2025)
